Laboratory results reported in patent US20090233871A1, “Complexed polypeptide and adjuvant for improved vaccines” (priority 2004, published 2009).

Columns and labels:
IFNγ-secreting CD8+ CTLs = test: primary IFNγ Elispot of CD8+ CTLs from mice primed with peptide plus CpG; conditions: 100 μg polypeptide + 100 μg CpG + 10 μg MPL-AF s.c., spleens day 10
[1] = tested on: CD8+ CTLs, T2 stimulators pulsed with polypeptide; format: in vivo, HLA-A2 transgenic mice; conditions: 100 μg CpG, equimolar CpG:peptide, s.c., day 10 (FIG. 8)

Row | Sequence | frequencies of IFNγ-secreting CTLs (priming efficiency) (IFNγ-secreting CD8+ CTLs) | priming on addition of a KCSRNR amino acid sequence vs native polypeptide [1]
1 | LTFNYRNL (Synthetically generated peptide) [H60] | most inefficient | 
2 | KTWGQYWQV |  | increased priming
